This passage reports IC50 results from patent US20080103164A1, “USEFUL COMPOUNDS FOR HPV INFECTION” (priority 2004, published 2008).

The assay deals with episomal HPV-16 DNA in W12-20850 cells. Nature of the assay: W-12 cellular assay: episomal HPV-16 DNA quantified by hybrid capture in W12-20850 cells. Type of assay: cell-based, HPV16. The following applies: Human papillomavirus 16, 96 h, four days incubation, inhibition of episomal HPV-16 DNA relative to untreated control. The procedure:
Compounds of the current invention are believed useful in the treatment and/or prophylaxis of conditions and diseases associated with HPV infection. Activity mediated through HPV was determined using the following W-12 cellular assay. The […] cell line used contains HPV16 DNA and was derived from a low-grade cervical dysplasia tissue by Margaret Stanley and subsequently clonally selected by Paul Lambert (University of Wisconsin). One of these clones, […]-20850, contains 1000 copies of episomal HPV16 DNA and was used in the cell-based assay. […]-20850 cells were routinely cultured with a gamma-irradiated (6000 rads) feeder layer of 3T3 cells. Assays, however, were run in the absence of a 3T3 feeder layer. […]-20850 and 3T3 cells were routinely split when they were sub-confluent. […]-20850 were grown in […] Medium which is constituted of 25% DMEM (Gibco BRL, Cat # 12430-047), 75% F12 Media (Gibco BRL, Cat # 11765-021) and 2.5% FBS. The additives include […] Adenine (Sigma, Cat # A-9795), […] Hydrocortisone (Calbiochem, Cat # 386698), […] Bovine Insulin (Sigma, Cat # 1-1882), 8.4 ng/ml cholera toxin (Fluka, Cat # 26694) and 10 ng/ml EGF (Invitrogen, Cat # 13247-051). 3T3 cells were grown in DMEM containing 10% FBS. Cell lines were incubated at 37° C., in the presence of 5% CO2. For the assay, […]-20850 cells were seeded into a 96 well plate-containing compound. Plates were incubated at 37° C. in the presence of 5% CO2, for four days. On the fourth day, cells were lysed and the amount of episomal HPV-16 DNA was quantified using a non-radioactive hybrid capture technique with HPV-16 specific capture and detection probes. The percent inhibition relative to untreated control cells was then determined. The hybrid capture assay is run in a 96 well plate format. Hybridization plates (Nunc Maxisorb Cat # 450320) were coated with a mixture of capture probe and ReactiBind solution for at least 4 hours and then washed with 0.2×SSC, 0.05% Tween-20 (SSCT) prior to blocking with 150 μl/well of 0.2 N NaOH, 1% Igepal, 10 mg/ml hsDNA for 6-8 hours. The hybridization was carried out by mixing 27 μl of lysed cells with 45 μl of denatured detection probe in 6M guanidine isothiocyanate. To prevent evaporation, 50 μl of mineral oil was added to each well. The plate was then heated to 90° C. for 6.5 minutes and the hybridization continued at 42° C. overnight. Assay plates were washed 6 times with SSC/T. Anti-digoxigenin HRP-conjugated Ab (Boehringer Mannheim 1207733, 1:5000) was incubated in the wells for 30 min at room temperature and washed with PBS/0.05% Tween-20. SuperSignal LBA substrate (Pierce Cat # 37070) was added, and chemiluminescence was measured using Wallac 1420 Victor plate reader.
For `c1ccc(-c2ccnc(N3CCc4c([nH]c5ccccc45)C3c3ccccc3)n2)cc1` (stereo not drawn) [Example 35, 1-phenyl-2-(4-phenyl-2-pyrimidinyl)-2,3,4,9-tetrahydro-1H-β-carboline], the half-maximal inhibitory concentration (IC50) (as a rule, the midpoint of a concentration-inhibition curve) is 2000 nM.
`c1ccc(-c2ccnc(N3CCc4c([nH]c5ccccc45)C3c3ccc4c(c3)CCO4)n2)cc1` (stereo not drawn) [Example 36, 1-(2,3-dihydro-1-benzofuran-5-yl)-2-(4-phenyl-2-pyrimidinyl)-2,3,4,9-tetrahydro-1H-β-carboline] registered an IC50 of 3000 nM.
`c1cncc(-c2ccnc(N3CCc4c([nH]c5ccccc45)C3c3ccc4c(c3)CCO4)n2)c1` (stereo not drawn) [Example 37, 1-(2,3-dihydro-1-benzofuran-5-yl)-2-[4-(3-pyridinyl)-2-pyrimidinyl]-2,3,4,9-tetrahydro-1H-β-carboline] displayed a half-maximal inhibitory concentration (IC50) of 4000 nM.
`c1ccc2c3c([nH]c2c1)C(c1ccc2c(c1)CCO2)N(c1nccc(-n2ccnc2)n1)CC3` (stereo not drawn) [Example 38, 1-(2,3-dihydro-1-benzofuran-5-yl)-2-[4-(1H-imidazol-1-yl)-2-pyrimidinyl]-2,3,4,9-tetrahydro-1H-β-carboline] registered a concentration for half-maximal inhibition (IC50) of 3000 nM.
Consider `Cc1cn(-c2ccnc(N3CCc4c([nH]c5ccccc45)C3c3ccc4c(c3)CCO4)n2)cn1` (stereo not drawn) [Example 39, 1-(2,3-dihydro-1-benzofuran-5-yl)-2-[4-(4-methyl-1H-imidazol-1-yl)-2-pyrimidinyl]-2,3,4,9-tetrahydro-1H-β-carboline], for which the IC50 is 2000 nM.
